Tests used:
[1] = Solubility kinetics in FaSSIF medium; type: physicochemical
Description: The solubility kinetics of the salt forms as well as the native EYP001 free acid form were determined in FaSSIF and FeSSIF media, and in a pH 4.5 acetate buffer as detailed below: The samples were prepared by adding an excess of each tested bulk (salt or native EYP001) to a given volume of test medium. The suspension was stirred by orbital stirring over 1 hour (in both pH 4.5 acetate buffer and FeSSIF medium) or 24 hours ([…] medium) at 37° C., protected from light. In FaSSIF medium, the soluble concentration was assessed after 24 hours of stirring. […] At each time point, the “supernatant” was isolated and diluted in a solvent mixture allowing its injection into the chromatographic system. The concentration in solution in the test medium was determined by HPLC with external standardization.

[2] = Polymorph screening (solids analysed by XRPD); type: physicochemical; conditions: form I as starting material
Description: A polymorph screening was performed on EYP001 L-lysine salt crystalline form I (form I as starting material unless otherwise specified).
A number of unique materials with different patterns were produced, including crystalline forms I-IV and an amorphous material. All solids from the screening experiments were analysed by XRPD analysis and the resulting patterns compared to that of the reference. The observed solids and their ways of obtention are described in Table 16.

[3] = Entry 1: no solvent, 23% RH stress
[4] = Entry 2: no solvent, 40° C./75% RH stress
[5] = Entry 3: no solvent, 59% RH stress
[6] = Entry 7: no solvent, melt quench
[7] = Entry 8: no solvent, compression
[8] = Entry 13: DMSO, slurry (20° C.)
[9] = Entry 14: EtOAc, slurry (5° C.)
[10] = Entry 15: water, slurry (5° C.)
[11] = Entry 16: THF, flash evaporation
[12] = Entry 17: THF, flash evaporation
[13] = Entry 18: acetone, flash evaporation
[14] = Entry 19: DMSO, flash evaporation
[15] = Entry 20: EtOAc, flash evaporation
[16] = Entry 21: IPA, flash evaporation
[17] = Entry 22: water, flash evaporation
[18] = Entry 23: MeOH, flash evaporation
[19] = Entry 24: EtOH, flash evaporation
[20] = Entry 25: heptane, flash evaporation
[21] = Entry 26: EtOH, flash evaporation
[22] = Entry 27: THF/water (82:18% v/v), flash evaporation
[23] = Entry 29: acetone, slurry (5° C.)
[24] = Entry 30: DMSO, slurry (20° C.)
[25] = Entry 31: EtOAc, slurry (5° C.)
[26] = Entry 33: water, slurry (5° C.)
[27] = Entry 36: heptane, slurry (5° C.)
[28] = Entry 37: THF/water (82:18% v/v), slurry (5° C.)
[29] = Entry 39: acetone, slurry (60° C.)
[30] = Entry 40: DMSO, slurry (60° C.)
[31] = Entry 41: EtOAc, slurry (60° C.)
[32] = Entry 43: water, slurry (60° C.)
[33] = Entry 44: MeOH, slurry (60° C.)
[34] = Entry 45: EtOH, slurry (60° C.)
[35] = Entry 46: heptane, slurry (60° C.)
[36] = Entry 47: EtOH /water (96:4% v/v), slurry (60° C.)
[37] = Entry 49: acetone, vapour stress
[38] = Entry 56: heptane, vapour stress
[39] = Entry 58: THF/water (82:18% v/v), anti-solvent THF, vapour diffusion
[40] = Entry 59: THF/water (82:18% v/v), anti-solvent IPA, vapour diffusion
[41] = Entry 60: THF/water (82:18% v/v), anti-solvent EtOAc, vapour diffusion
[42] = Entry 61: acetone/water (50:50% v/v), slow cool
[43] = Entry 62: DMSO/water (80:20% v/v), slow cool
[44] = Entry 64: IPA/water (80:20% v/v), slow cool
[45] = Entry 65: MEOH/water (84:16% v/v), slow cool
[46] = Entry 66: THF/water (82:18% v/v), slow cool
[47] = Entry 67: THF/water (82:18% v/v), crash precipitation
[48] = Entry 69: DMSO, anti-solvent EtOAc, crash precipitation
[49] = Entry 70: THF/water (82:18% v/v), temperature cycle
[50] = Entry 71: DMSO/water (80:20% v/v), temperature cycle
[51] = Entry 72: MeOH/water (84:16% v/v), temperature cycle

NCCCC[C@H](N)C(=O)O.O=C(O)c1cc2c(Cl)c(N3CCN(S(=O)(=O)c4c(Cl)cccc4Cl)CC3)ccc2o1 [EYP001 L-lysine salt Form I, L-lysine salt of 4-chloro-5-[4-(2,6-dichlorophenyl)sulfonylpiperazin-1-yl]-1-benzofuran-2-carboxylic acid]
solubility compared to EYP001 free acid, Piperazine, Morpholine, Imidazole, Benethamine, Zinc and Cyclohexylamine salts ([1]; 37° C.): higher solubility
Soluble fraction ([1]; 37° C., after 24 h): 0.31 mg/mL of EYP001
pH ([1]; pH given with the soluble fraction, after 24 h): 6.6
Results [2, 3]: solid
XRPD [2, 3]: Form I
Results [2, 4]: solid
XRPD [2, 4]: Form I
Results [2, 5]: solid
XRPD [2, 5]: Form I
Results [2, 6]: solid
XRPD [2, 6]: Amorphous
Results [2, 7]: solid
XRPD [2, 7]: Form I
Results ([2]; Entry 10: no solvent, milling): solid
XRPD ([2]; Entry 10: no solvent, milling): Amorphous
Results ([2]; Entry 12: THF, slurry (50° C.)): solid
XRPD ([2]; Entry 12: THF, slurry (50° C.)): Amorphous
Results [2, 8]: solid
XRPD [2, 8]: Form I
Results [2, 9]: solid
XRPD [2, 9]: Form I
Results [2, 10]: solid
XRPD [2, 10]: Form III
Results [2, 11]: no solid
XRPD [2, 11]: Amorphous
Results [2, 12]: solid
XRPD [2, 12]: Form II
Results [2, 13]: solid
XRPD [2, 13]: Amorphous
Results [2, 14]: solid
XRPD [2, 14]: Form I
Results [2, 15]: solid
XRPD [2, 15]: Amorphous
Results [2, 16]: solid
XRPD [2, 16]: Amorphous
Results [2, 17]: solid
XRPD [2, 17]: Form I
Results [2, 18]: solid
XRPD [2, 18]: Form I
Results [2, 19]: solid
XRPD [2, 19]: Form I
Results [2, 20]: solid
XRPD [2, 20]: Form II
Results [2, 21]: solid
XRPD [2, 21]: Form I
Results [2, 22]: solid
XRPD [2, 22]: Form I
Results ([2]; Entry 28: THF, slurry (5° C.)): solid
XRPD ([2]; Entry 28: THF, slurry (5° C.)): Form I
Results [2, 23]: solid
XRPD [2, 23]: Form I
Results [2, 24]: solid
XRPD [2, 24]: Amorphous
Results [2, 25]: solid
XRPD [2, 25]: Form I
Results ([2]; Entry 32: IPA, slurry (5° C.)): solid
XRPD ([2]; Entry 32: IPA, slurry (5° C.)): Form I
Results [2, 26]: solid
XRPD [2, 26]: Form III
Results ([2]; Entry 34: MeOH, slurry (5° C.)): solid
XRPD ([2]; Entry 34: MeOH, slurry (5° C.)): Form IV
Results ([2]; Entry 35: EtOH, slurry (5° C.)): solid
XRPD ([2]; Entry 35: EtOH, slurry (5° C.)): Form I
Results [2, 27]: solid
XRPD [2, 27]: Amorphous
Results [2, 28]: solid
XRPD [2, 28]: Form I
Results ([2]; Entry 38: THF, slurry (60° C.)): solid
XRPD ([2]; Entry 38: THF, slurry (60° C.)): Form I
Results [2, 29]: solid
XRPD [2, 29]: Amorphous
Results [2, 30]: solid
XRPD [2, 30]: Form I
Results [2, 31]: solid
XRPD [2, 31]: Form I
Results ([2]; Entry 42: IPA, slurry (60° C.)): solid
XRPD ([2]; Entry 42: IPA, slurry (60° C.)): Form I
Results [2, 32]: solid
XRPD [2, 32]: Form III
Results [2, 33]: solid
XRPD [2, 33]: Form I
Results [2, 34]: solid
XRPD [2, 34]: Form I
Results [2, 35]: solid
XRPD [2, 35]: Amorphous
Results [2, 36]: solid
XRPD [2, 36]: Form I
Results ([2]; Entry 48: THF, vapour stress): solid
XRPD ([2]; Entry 48: THF, vapour stress): Amorphous
Results [2, 37]: solid
XRPD [2, 37]: Amorphous
Results ([2]; Entry 50: DMSO, vapour stress): solid
XRPD ([2]; Entry 50: DMSO, vapour stress): Amorphous
Results ([2]; Entry 51: EtOAc, vapour stress): solid
XRPD ([2]; Entry 51: EtOAc, vapour stress): Form I
Results ([2]; Entry 52: IPA, vapour stress): solid
XRPD ([2]; Entry 52: IPA, vapour stress): Form I
Results ([2]; Entry 53: water, vapour stress): solid
XRPD ([2]; Entry 53: water, vapour stress): Form I
Results ([2]; Entry 54: MeOH, vapour stress): solid
XRPD ([2]; Entry 54: MeOH, vapour stress): Form I
Results ([2]; Entry 55: EtOH, vapour stress): solid
XRPD ([2]; Entry 55: EtOH, vapour stress): Form I
Results [2, 38]: solid
XRPD [2, 38]: Amorphous
Results ([2]; Entry 57: THF/water (82:18% v/v), vapour stress): solution
Results [2, 39]: solid
XRPD [2, 39]: Form I
Results [2, 40]: solid
XRPD [2, 40]: Form I
Results [2, 41]: solid
XRPD [2, 41]: Form I
Results [2, 42]: solid
XRPD [2, 42]: Form I
Results [2, 43]: solid
XRPD [2, 43]: Form I
Results ([2]; Entry 63: water, slow cool): solid
XRPD ([2]; Entry 63: water, slow cool): Form III
Results [2, 44]: solid
XRPD [2, 44]: Form I
Results [2, 45]: solid
XRPD [2, 45]: Form I
Results [2, 46]: solid
XRPD [2, 46]: Form I
Results [2, 47]: solid
XRPD [2, 47]: Form I
Results ([2]; Entry 68: DMSO, anti-solvent THF, crash precipitation): no solid
Results [2, 48]: solid
XRPD [2, 48]: Amorphous
Results [2, 49]: solid
XRPD [2, 49]: Form I
Results [2, 50]: solid
XRPD [2, 50]: Form I
Results [2, 51]: solid
XRPD [2, 51]: Form I

Reference: patent US20250019370A1, “L-LYSINE SALT OF 4-CHLORO-5-[4-(2,6-DICHLOROPHENYL)SULFONYLPIPERAZIN-1-YL]-1-BENZOFURAN-2-CARBOXYLIC ACID AND VARIOUS FORMS THEREOF” (ENYO PHARMA, priority 2023, published 2025)
